Test results taken from PubChem BioAssay AID1963851 (Molecular Pharmacology Branch, DTP, NCI, 2024).
“And” between values parts separate entries of the source, which are not always exact repeats. Identical values can stand only once.

Tested on: 188146-221-R-J1-PDC complex spheroid viability
Assay: Anticancer human tumor 188146-221-R-J1-PDC patient-derived colon adenocarcinoma cell line growth inhibition [POLQ]
Settings: for viability, T/C: stronger effect = lower value
Description: Multicellular complex tumor spheroid response to Polymerase (POL) inhibitors (novobiocin, ART-558, RP6685) in combination with a variety of drugs and investigational agents in selected tumor cell lines
The POL inhibitors (novobiocin, ART-558, and RP6685) were evaluated both individually and in combination with standard of care and investigational anticancer small molecules within a complex spheroid model of solid tumors. . Complex spheroids include a stromal component modeled by human endothelial cells (HUVEC) and fibroblasts modeled by human mesenchymal stem cells (MSCs). The concentration ranges selected for each drug and investigational agent were based upon clinically achievable concentrations if the clinical Cmax of the agent was known.
Compounds. The drugs and investigational agents: novobiocin (NSC847541), ART-558 (NSC835418), RP-6685 (NSC848927), peposertib (NSC802822), ceralasertib (NSC780249), elimusertib (NSC800525), camonsertib (NSC841442), AZD-1390 (NSC803789), olaparib (NSC753686), talazoparib (NSC767125), rucaparib (NSC756644), sotorasib (NSC818433), MRTX-1133 (NSC836407), SN-38 (NSC673596), topotecan (NSC609699), epotoside (NSC141540), doxorubicin (NSC123127), gemcitabine (NSC613327), 5-fluorouracil (NSC19893), paclitaxel (NSC125973), vemurafenib (NSC761431), MSA-2 (NSC828583), SN-011 (NSC837082), adavosertib (NSC754352), prexasertib (NSC758257), carboplatin (NSC241240) and oxaliplatin (NSC266046), were obtained from the National Cancer Institute (NCI) Developmental Therapeutics Program Chemical Repository (21). The FDA-approved anticancer drug set is available from the Developmental Therapeutics Program at https://dtp.cancer.gov/organization/dscb/obtaining/. […] The stock solutions were prepared in dimethyl sulfoxide (DMSO, Sigma-Aldrich, St. Louis, MO, cat. D2650), except for the platinum compounds which were prepared in saline (Quality Biological, Gaithersburg, MD, cat. 114-055-101), at 800-fold the tested concentration and stored at -70 degrees C prior to their use. All drugs and investigational agents were tested over a range starting from a high concentration at or near the clinical Cmax and decreasing in half-log increments. If the clinical Cmax for an agent had not been determined, the highest concentration tested was 10 microM, except for SN-38, which was tested at a high concentration of 1 microM.
Cell Culture. All cells were maintained in an incubator at 37 degrees C and 5% CO2 with 95% humidity. The PDC lines were cultured according to standard operating procedures established by the NCI PDMR (https://pdmr.cancer.gov). Table 3 of the manuscript, lists the cell lines along with the number of the three cell types plated to form the mct-spheroids and media for tumor cell growth. After thawing, all PDC lines, except 997537-175-T-J1-PDC and 415267-285-R-J2-PDC, were cultured in Matrigel-coated flasks prepared with a working solution of 1X Ham's F-12 nutrient mix, without supplementation (Thermo Fisher Scientific, cat. 11765054), 100 U/mL penicillin-streptomycin (Thermo Fisher Scientific, cat. 15140122), and 2.5% Matrigel (Corning Inc., Corning, NY, cat. 354248) for the first three passages. The two PDC lines 997537-175-T-J1-PDC and 415267-285-R-J2-PDC were cultured on uncoated flasks. The 857933-349-R-J2-PDC line was cultured in 6C/Colon 1B media containing advanced DMEM/F-12 (Thermo Fisher Scientific, cat. 12634028), 10 mM HEPES (Thermo Fisher Scientific, cat. 15630080), 1X GlutaMAX supplement (Thermo Fisher Scientific, cat. 35050061), 0.1 mg/mL primocin (InvivoGen, San Diego, CA, cat. ant-pm-2), 10% defined fetal bovine serum, heat inactivated (HyClone Laboratories Inc., Logan, UT, cat. SH30070.03HI), 50% L-WRN conditioned media (ATCC, cat. CRL-3276), 1.25 mM N-Acetyl-L-cysteine (Sigma-Aldrich, cat. A9165), 10 mM nicotinamide (Sigma-Aldrich, cat. N0636), 1X B-27 supplement (Thermo Fisher Scientific, cat. 17504044), 1X N-2 supplement (Thermo Fisher Scientific, cat. […]

[1] = compound alone, run of 10/31/2023
[2] = compound alone, run of 11/06/2023
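Further: spheroids exposed to compounds for seven days.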
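Wherever viability, T/C is given: 100% = DMSO vehicle control viability.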

SMILES	viability, T/C (compound 0.0316 µM)	viability, T/C (compound 0.1 µM)	viability, T/C (compound 0.316 µM)	viability, T/C (compound 1 µM)	viability, T/C (compound 3.16 µM)	viability, T/C (compound 10 µM)	IC50 (curve of compound)	IC50 [1] [nM]	viability, T/C (compound 0.00316 µM)	viability, T/C (compound 0.01 µM)	IC50 [2] [nM]	viability, T/C (compound 0.000316 µM)	viability, T/C (compound 0.001 µM)
CNCc1ccc(-c2[nH]c3cc(F)cc4c3c2CCNC4=O)cc1	111% and 108% and 115%	108% and 97.9% and 106%	102% and 109% and 99.4%	105% and 104% and 103%	112% and 105% and 113%	100% and 99.3% and 95.5%	> 10000 nM	–	–	–	–	–	–
COC1C(OC(N)=O)C(O)C(Oc2ccc3c(O)c(NC(=O)c4ccc(O)c(CC=C(C)C)c4)c(=O)oc3c2C)OC1(C)C (configuration not stated)	103% [middle of 12 runs]	–	102% [middle of 13 runs]	105% [middle of 13 runs]	107% [middle of 13 runs]	108% [middle of 13 runs]	–	> 10000	–	–	–	–	–
COc1cc(C2c3cc4c(cc3C(OC3OC5COC(C)OC5C(O)C3O)C3COC(=O)C23)OCO4)cc(OC)c1O (configuration not stated)	115% and 92.4% and 98.7%	102% and 84.8% and 107%	77% and 71.8% and 65.6%	51.8% and 43.3% and 50.5%	30.1% and 27.2% and 24.4%	23.1% and 24.8% and 25%	1030 nM and 758 nM and 789 nM	–	–	–	–	–	–
COc1cc2cc(C(=O)CCC(=O)O)sc2cc1OC	100% and 119% and 108%	84.6% and 105% (2×)	108% and 88.4% and 95%	93% and 103% and 104%	100% and 109% and 108%	111% and 110% and 95.3%	> 10000 nM	–	–	–	–	–	–
COc1ccc([C@@H](O)c2cc(-c3ncnc4cc(N5CCOCC5)ccc34)c(F)cc2Cl)nn1	102% and 91.7% and 100%	101% and 92.3% and 96.1%	90.7% and 97.8% and 96.1%	90.2% and 101% and 91.3%	68.4% and 78.3% and 67.7%	32.3% and 39.1% and 29.9%	5750 nM and 7260 nM and 5430 nM	–	–	–	–	–	–
COc1cccc(OCCCN)c1-c1cc(Nc2cnc(C#N)cn2)n[nH]1	42.7% and 75.8% and 72.2%	20.7% and 37.1% and 32.8%	12.7% and 16.1% and 16.8%	9.17% and 13% (2×)	–	–	27.2 nM and 68 nM and 61.2 nM	–	97.7% and 99% and 88.2%	88.1% and 99.5% and 101%	–	–	–
COc1cccc2c1C(=O)c1c(O)c3c(c(O)c1C2=O)CC(O)(C(=O)CO)CC3OC1CC(N)C(O)C(C)O1 (configuration not stated)	78% and 71.8% and 78.2%	60.5% and 38.2% and 54.6%	32.8% and 29.6% and 32.9%	8.2% and 10% and 11.1%	1.38% and 0.34% and 0.33%	0.57% and 0.47% and 0.49%	155 nM and 73.6 nM and 132 nM	–	–	–	–	–	–
Cc1cccc(N(C)C(=O)C2C(O)CCN2c2nc(C)cc(C(F)(F)F)c2C#N)c1 (configuration not stated)	–	102% [middle of 13 runs]	100% [middle of 13 runs]	105% [middle of 13 runs]	101% [middle of 13 runs]	97.8% [middle of 13 runs]	–	> 10000	–	–	> 10000	–	–
Cn1ncnc1[C@H]1c2n[nH]c(=O)c3cc(F)cc(c23)N[C@@H]1c1ccc(F)cc1	104% and 87% and 114%	95.4% and 95.5% and 82.1%	–	–	–	–	> 100 nM	–	89.9% and 107% and 95.2%	99.5% and 108% and 103%	–	102% and 97.5% and 109%	112% and 93.3% and 103%
Nc1ccc(C#CCN(C(=O)Cc2ncc(C(F)(F)F)cc2C(F)(F)F)c2ccc(F)cc2)nn1	94.8% [middle of 12 runs]	99.1% [middle of 13 runs]	105% [middle of 13 runs]	102% [middle of 13 runs]	101% [middle of 12 runs]	108% [middle of 13 runs]	–	–	–	–	> 10000	–	–
Nc1ccn(C2OC(CO)C(O)C2(F)F)c(=O)n1 (configuration not stated)	27.1% and 27.6% and 53.7%	17.8% and 15.8% and 24.2%	13.2% and 15.2% and 14.9%	16.1% and 16.9% and 13.9%	15.9% and 19.2% and 16.6%	10.9% (2×) and 15.4%	< 31.6 nM and 36.4 nM	–	–	–	–	–	–
O=C(Nc1ccc(O)c(NS(=O)(=O)c2ccc(F)cc2)c1)c1ccc(-c2ccccc2)cc1	93.2% and 100% and 110%	98.5% and 107% and 104%	89.5% and 95.1% and 93.5%	93.2% and 103% and 118%	99.4% and 81.3% and 100%	59.1% and 73.5% and 78.4%	> 10000 nM	–	–	–	–	–	–
O=C(c1cc(Cc2n[nH]c(=O)c3ccccc23)ccc1F)N1CCN(C(=O)C2CC2)CC1	95.8% and 103% and 101%	105% and 101% and 97%	89.8% and 97.6% and 92.6%	90.3% and 81.9% and 108%	104% and 95.4% and 97.6%	73.3% and 74% and 74.6%	> 10000 nM	–	–	–	–	–	–
O=c1[nH]cc(F)c(=O)[nH]1	102% and 101% and 107%	95.6% and 97.8% and 103%	66.6% and 74% and 69.3%	59.6% and 61.5% and 58.3%	44.9% and 51.3% and 45.6%	31.6% and 43.5% and 31.8%	1830 nM and 3020 nM and 1680 nM	–	–	–	–	–	–
